Here are results for 9 compounds from US20210047304A1, “Bromodomain Inhibitors” (AbbVie Inc., priority 2016, published 2021).

pKi: −log10 of the molar value.

This test addresses BRD4 (BDI_K57-E168) (Homo sapiens, UniProt O60885). Description: TR-FRET bromodomain binding assay, BRD4 BDI. For orientation: In TR-FRET formats the signal depends on donor and acceptor labels being close together.
One may read the pKi as the Ki on a negative log10 scale, so that one unit is a factor of ten. A lower pKi goes with a high Ki. Consider `Cc1cc(F)cc(C)c1Oc1ccc(C(C)(C)O)cc1-c1cn(C)c(=O)cc1O[C@H]1CC[C@H](NC(=O)C2(CNC(=O)OC(C)(C)C)CC2)CC1` [Example 104, tert-butyl [(1-{[trans-4-({5-[2-(4-fluoro-2,6-dimethylphenoxy)-5-(2-hydroxypropan-2-yl)phenyl]-1-methyl-2-oxo-1,2-dihydropyridin-4-yl}oxy)cyclohexyl]carbamoyl}cyclopropyl)methyl]carbamate], for which the negative logarithm of the Ki (pKi) was below 4.89.
Next, `CC(=O)NN[C@H]1CC[C@H](Oc2cc(=O)n(C)cc2-c2cc(C(C)(C)O)ccc2Oc2c(C)cc(F)cc2C)CC1` [Example 105, N′-[trans-4-({5-[2-(4-fluoro-2,6-dimethylphenoxy)-5-(2-hydroxypropan-2-yl)phenyl]-1-methyl-2-oxo-1,2-dihydropyridin-4-yl}oxy)cyclohexyl]acetohydrazide]: 5.67; `Cc1cc(F)cc(C)c1Oc1ccc(C(C)(C)O)cc1-c1cn(C)c(=O)cc1O[C@H]1CC[C@H](NNC(=O)OC(C)(C)C)CC1` [Example 106, tert-butyl 2-[trans-4-({5-[2-(4-fluoro-2,6-dimethylphenoxy)-5-(2-hydroxypropan-2-yl)phenyl]-1-methyl-2-oxo-1,2-dihydropyridin-4-yl}oxy)cyclohexyl]hydrazine-1-carboxylate]: 5.47; `Cc1cc(F)cc(C)c1Oc1ccc(C(C)(C)O)cc1-c1cn(C)c(=O)cc1O[C@H]1CC[C@@H](NNC(=O)OC(C)(C)C)CC1` [Example 107, tert-butyl 2-[cis-4-({5-[2-(4-fluoro-2,6-dimethylphenoxy)-5-(2-hydroxypropan-2-yl)phenyl]-1-methyl-2-oxo-1,2-dihydropyridin-4-yl}oxy)cyclohexyl]hydrazine-1-carboxylate]: 5.75.
With `Cc1cc(F)cc(C)c1Oc1ccc(C(C)(C)O)cc1-c1cn(C)c(=O)cc1O[C@H]1CC[C@H](C(=O)N(C)C)CC1` [Example 108, trans-4-({5-[2-(4-fluoro-2,6-dimethylphenoxy)-5-(2-hydroxypropan-2-yl)phenyl]-1-methyl-2-oxo-1,2-dihydropyridin-4-yl}oxy)-N,N-dimethylcyclohexane-1-carboxamide] the figure was 5.26; with `Cc1cc(F)cc(C)c1Oc1ccc(C(C)(C)O)cc1-c1cn(C)c(=O)cc1O[C@H]1CC[C@H](N2NCCC2=O)CC1` [Example 109, 5-[2-(4-fluoro-2,6-dimethylphenoxy)-5-(2-hydroxypropan-2-yl)phenyl]-1-methyl-4-{[trans-4-(5-oxopyrazolidin-1-yl)cyclohexyl]oxy}pyridin-2(1H)-one], below 4.89; with `Cc1cc(F)cc(C)c1Oc1ccc(C(C)(C)O)cc1-c1cn(C)c(=O)cc1O[C@H]1CC[C@H](NC(=O)C2(C(N)=O)CC2)CC1` [Example 111, N-[trans-4-({5-[2-(4-fluoro-2,6-dimethylphenoxy)-5-(2-hydroxypropan-2-yl)phenyl]-1-methyl-2-oxo-1,2-dihydropyridin-4-yl}oxy)cyclohexyl]cyclopropane-1,1-dicarboxamide], 5.92.
`CC(=O)N1CCC(=O)N1[C@H]1CC[C@H](Oc2cc(=O)n(C)cc2-c2cc(C(C)(C)O)ccc2Oc2c(C)cc(F)cc2C)CC1` [Example 112, 4-{[trans-4-(2-acetyl-5-oxopyrazolidin-1-yl)cyclohexyl]oxy}-5-[2-(4-fluoro-2,6-dimethylphenoxy)-5-(2-hydroxypropan-2-yl)phenyl]-1-methylpyridin-2(1H)-one]: the pKi was 5.31.
With `CNC(=O)N(C)Cc1ccc(Oc2c(C)cccc2C)c(-c2cn(C)c(=O)cc2O[C@H]2CC[C@H](NC(=O)C3(C)CC3)CC2)c1` [Example 113, N-[trans-4-({5-[2-(2,6-dimethylphenoxy)-5-{[methyl(methylcarbamoyl)amino]methyl}phenyl]-1-methyl-2-oxo-1,2-dihydropyridin-4-yl}oxy)cyclohexyl]-1-methylcyclopropane-1-carboxamide] the figure was 5.22.
